Measurements reported in the NIST ThermoML archive (doi:10.1016/j.tca.2018.01.023).
Where “and” joins values, the source holds several entries; their conditions need not be identical. Identical values can stand only once.

Test: molar heat capacity at constant pressure
Conditions: 101.33 kPa, Crystal, Small sample (50 mg) DSC

[Ca+2].[O]=[Mo](=[O])([O-])[O-] [calcium molybdate(VI)]
Conditions	molar heat capacity at constant pressure
596.4 K	141.2 J/K/mol
597 K	142.1 J/K/mol
597.4 K	141.3 J/K/mol
598 K	142.2 J/K/mol
598.4 K	141.3 J/K/mol
599 K	142.2 J/K/mol
599.4 K	141.3 J/K/mol
600 K	141.5 J/K/mol and 142.3 J/K/mol
600.4 K	141.3 J/K/mol
601 K	142.4 J/K/mol
601.4 K	141.4 J/K/mol
602 K	142.4 J/K/mol
602.4 K	141.4 J/K/mol
603 K	142.5 J/K/mol
603.4 K	141.4 J/K/mol
604.1 K	142.4 J/K/mol
604.4 K	141.4 J/K/mol
605.1 K	142.4 J/K/mol
605.4 K	141.4 J/K/mol
606.1 K	142.4 J/K/mol
606.4 K	141.5 J/K/mol
607.1 K	142.5 J/K/mol
607.4 K	141.5 J/K/mol
608.1 K	142.5 J/K/mol
608.4 K	141.5 J/K/mol
609.1 K	142.6 J/K/mol
609.4 K	141.5 J/K/mol
610.1 K	142.7 J/K/mol
610.4 K	141.5 J/K/mol
611.1 K	142.7 J/K/mol
611.4 K	141.5 J/K/mol
612.1 K	142.7 J/K/mol
612.4 K	141.5 J/K/mol
613.1 K	142.8 J/K/mol
613.4 K	141.6 J/K/mol
614.1 K	142.8 J/K/mol
614.4 K	141.6 J/K/mol
615.1 K	142.8 J/K/mol
615.4 K	141.6 J/K/mol
616.1 K	142.9 J/K/mol
616.4 K	141.6 J/K/mol
617.1 K	142.9 J/K/mol
617.4 K	141.6 J/K/mol
618.1 K	142.9 J/K/mol
618.4 K	141.6 J/K/mol
619.1 K	143 J/K/mol
619.4 K	141.5 J/K/mol
620 K	142.4 J/K/mol
620.1 K	143.1 J/K/mol
620.4 K	141.5 J/K/mol
621.1 K	143.2 J/K/mol
621.4 K	141.4 J/K/mol
622.1 K	143.2 J/K/mol
622.4 K	141.5 J/K/mol
623.1 K	143.3 J/K/mol
623.4 K	141.5 J/K/mol
624.1 K	143.3 J/K/mol
624.4 K	141.6 J/K/mol
624.5 K	143.3 J/K/mol
625.4 K	141.6 J/K/mol
626.4 K	141.7 J/K/mol
627.4 K	141.7 J/K/mol
628.4 K	141.7 J/K/mol
629.4 K	141.8 J/K/mol
630.4 K	141.8 J/K/mol
631.4 K	141.9 J/K/mol
632.4 K	142.1 J/K/mol
633.4 K	142.2 J/K/mol
634.4 K	142.3 J/K/mol
635.4 K	142.3 J/K/mol
636.4 K	142.4 J/K/mol
637.4 K	142.4 J/K/mol
638.4 K	142.4 J/K/mol
639.4 K	142.5 J/K/mol
640 K	143.2 J/K/mol
640.4 K	142.6 J/K/mol
641.4 K	142.7 J/K/mol
642.4 K	142.8 J/K/mol
643.4 K	142.8 J/K/mol
644.4 K	142.9 J/K/mol
645.4 K	142.9 J/K/mol
646.4 K	143 J/K/mol
647.4 K	143 J/K/mol
648.4 K	143 J/K/mol
649.4 K	143.1 J/K/mol
650.4 K	143.2 J/K/mol
651.4 K	143.2 J/K/mol
652.4 K	143.3 J/K/mol
653.4 K	143.4 J/K/mol
654.4 K	143.4 J/K/mol
655.4 K	143.5 J/K/mol
656.4 K	143.6 J/K/mol
657.4 K	143.6 J/K/mol
658.4 K	143.7 J/K/mol
659.4 K	143.8 J/K/mol
660 K	144 J/K/mol
660.4 K	143.8 J/K/mol
661.4 K	143.9 J/K/mol
662.4 K	144 J/K/mol
663.4 K	144 J/K/mol
664.4 K	144.1 J/K/mol
665.4 K	144.2 J/K/mol
666.4 K	144.2 J/K/mol
667.4 K	144.3 J/K/mol
668.4 K	144.3 J/K/mol
669.4 K	144.4 J/K/mol
670.4 K	144.4 J/K/mol
671.4 K	144.4 J/K/mol
672.4 K	144.5 J/K/mol
673.4 K	144.5 J/K/mol
674.4 K	144.5 J/K/mol
675.4 K	144.5 J/K/mol
676.4 K	144.6 J/K/mol
677.4 K	144.6 J/K/mol
678.4 K	144.7 J/K/mol
679.4 K	144.8 J/K/mol
680 K	144.7 J/K/mol
680.4 K	144.9 J/K/mol
681.4 K	144.9 J/K/mol
682.4 K	145 J/K/mol
683.4 K	145.1 J/K/mol
684.4 K	145.2 J/K/mol
685.4 K	145.3 J/K/mol
686.4 K	145.3 J/K/mol
687.4 K	145.4 J/K/mol
688.4 K	145.4 J/K/mol
689.4 K	145.5 J/K/mol
690.4 K	145.5 J/K/mol
691.4 K	145.6 J/K/mol
692.4 K	145.6 J/K/mol
693.4 K	145.7 J/K/mol
694.4 K	145.8 J/K/mol
695.4 K	145.8 J/K/mol
696.4 K	145.9 J/K/mol
697.4 K	145.9 J/K/mol
698.4 K	145.9 J/K/mol
699.4 K	145.9 J/K/mol
700 K	145.4 J/K/mol
700.4 K	145.9 J/K/mol
701.4 K	145.9 J/K/mol
702.4 K	145.9 J/K/mol
703.4 K	145.9 J/K/mol
704.4 K	145.9 J/K/mol
705.4 K	145.9 J/K/mol
706.4 K	145.8 J/K/mol
707.4 K	145.8 J/K/mol
708.4 K	145.8 J/K/mol
709.4 K	145.9 J/K/mol
710.4 K	145.9 J/K/mol
711.4 K	145.9 J/K/mol
712.4 K	146 J/K/mol
713.4 K	146 J/K/mol
714.4 K	146 J/K/mol
715.4 K	146 J/K/mol
716.4 K	146.1 J/K/mol
717.4 K	146.2 J/K/mol
718.4 K	146.2 J/K/mol
719.4 K	146.3 J/K/mol
720 K	146.1 J/K/mol
720.4 K	146.3 J/K/mol
721.4 K	146.3 J/K/mol
722.4 K	146.3 J/K/mol
723.4 K	146.4 J/K/mol
724.4 K	146.4 J/K/mol
725.4 K	146.5 J/K/mol
726.4 K	146.5 J/K/mol
727.4 K	146.6 J/K/mol
728.4 K	146.6 J/K/mol
729.4 K	146.6 J/K/mol
730.4 K	146.7 J/K/mol
731.4 K	146.7 J/K/mol
732.4 K	146.7 J/K/mol
733.4 K	146.7 J/K/mol
734.4 K	146.7 J/K/mol
735.4 K	146.7 J/K/mol
736.4 K	146.7 J/K/mol
737.4 K	146.7 J/K/mol
738.4 K	146.8 J/K/mol
739.4 K	146.9 J/K/mol
740 K	146.8 J/K/mol
740.4 K	147 J/K/mol
741.4 K	147 J/K/mol
742.4 K	147.1 J/K/mol
743.4 K	147.1 J/K/mol
744.4 K	147.1 J/K/mol
745.4 K	147.2 J/K/mol
746.4 K	147.2 J/K/mol
747.4 K	147.3 J/K/mol
748.4 K	147.3 J/K/mol
749.4 K	147.3 J/K/mol
750.4 K	147.3 J/K/mol
751.4 K	147.4 J/K/mol
752.4 K	147.4 J/K/mol
753.4 K	147.4 J/K/mol
754.4 K	147.5 J/K/mol
755.4 K	147.5 J/K/mol
756.4 K	147.6 J/K/mol
757.4 K	147.7 J/K/mol
758.4 K	147.7 J/K/mol
759.4 K	147.8 J/K/mol
760 K	147.4 J/K/mol
760.4 K	147.8 J/K/mol
761.4 K	147.8 J/K/mol
762.4 K	147.7 J/K/mol
763.4 K	147.7 J/K/mol
764.4 K	147.7 J/K/mol
765.4 K	147.8 J/K/mol
766 K	147.5 J/K/mol
766.4 K	147.9 J/K/mol
